Experimental data from ChEMBL document CHEMBL5634090, “Design of phenothiazine-based cationic amphiphilic derivatives incorporating arginine residues: Potential membrane-active broad-spectrum antimicrobials combating pathogenic bacteria in vitro and in vivo” (Eur J Med Chem, 2023).
In brackets after ≈: the same amount, converted by molar mass.

Columns and labels:
Assay type in all cases: functional
Staphylococcus aureus [1] = experiment: Antibacterial activity against Staphylococcus aureus ATCC 29213 infected in cyclophosphamide immunosuppressed keratitis mouse model assessed as log reduction in number of viable bacterial colonies at 50 mg/ml administrated tropically
Staphylococcus aureus [2] = experiment: Antibacterial activity against Staphylococcus aureus ATCC 29213 assessed as log reduction in bacterial load at 4 times MIC measured after 2 hrs by time kill assay
Staphylococcus aureus [3] = experiment: Antibacterial activity against methicillin resistant Staphylococcus aureus NCTC 10442 by microbroth dilution assay
Staphylococcus aureus [4] = experiment: Antibacterial activity against Staphylococcus aureus ATCC 29213 by microbroth dilution assay
Staphylococcus aureus [5] = experiment: Antibacterial activity against methicillin resistant Staphylococcus aureus N315 by microbroth dilution assay
Staphylococcus aureus [6] = experiment: Antibacterial activity against Staphylococcus aureus ATCC 29213 assessed as log reduction in bacterial load at 8 times MIC measured after 2 hrs by time kill assay
Pseudomonas aeruginosa = experiment: Antibacterial activity against Pseudomonas aeruginosa ATCC 9027 infected in cyclophosphamide immunosuppressed keratitis mouse model assessed as log reduction in number of viable bacterial colonies at 0.3 % administrated tropically

SMILES | log(activity) (Staphylococcus aureus [1]) | log(activity) (Staphylococcus aureus [2]) | MIC (Staphylococcus aureus [3]) [µg/mL] | MIC (Staphylococcus aureus [4]) [µg/mL] | MIC (Staphylococcus aureus [5]) [µg/mL] | log(activity) (Staphylococcus aureus [6]) | log(activity) (Pseudomonas aeruginosa)
CN[C@H](CC(C)C)C(=O)N[C@H]1C(=O)N[C@@H](CC(N)=O)C(=O)N[C@H]2C(=O)N[C@H]3C(=O)N[C@H](C(=O)N[C@H](C(=O)O)c4cc(O)cc(O)c4-c4cc3ccc4O)[C@H](O)c3ccc(c(Cl)c3)Oc3cc2cc(c3O[C@@H]2O[C@H](CO)[C@@H](O)[C@H](O)[C@H]2O[C@H]2C[C@](C)(N)[C@H](O)[C@H](C)O2)Oc2ccc(cc2Cl)[C@H]1O [VANCOMYCIN] | 5.2 | 0.03 | 1.56 (≈ 1.08 µM) | 0.78 (≈ 0.538 µM) | 1.56 (≈ 1.08 µM) | 0.15 | –
NC[C@H]1O[C@H](O[C@H]2[C@H](O)[C@@H](O[C@H]3O[C@H](CO)[C@@H](O)[C@H](N)[C@H]3O)[C@H](N)C[C@@H]2N)[C@H](N)C[C@@H]1O [TOBRAMYCIN] | – | – | – | – | – | – | 4.71
